{"source": "patent US20090317501A1", "about": "“Pinus Pinea Plant Extracts For Treating Osteoporosis and the Extraction Process Thereof” (priority 2006, published 2009)", "tested_on": "osteoclastic bone resorption", "experiment": "Bone resorption screening, CTX release by osteoclasts on bovine bone slices", "type": "cell-based, human", "details": "positive control; DMSO negative control set to 100%; 5 days incubation", "source_text": "Studies have determined that osteoclasts are largely derived from CD14 positive monocytes (J. Haemotol, 1999 July; 106(1):167-70). Clonal analysis of haematopoietic cells by surface phenotypes has been used to further identify osteoclast precursor by characterizing osteoclast like cells distinct from other haematopoietic progenitors (Lee et.al; 1992b Muguruma & Lee; 1988). Surface phenotype analysis has shown that human osteoclasts are derived from CD14 monocytes (Massey & Flanagan, 1999). CD 14 marker is strongly expressed on monocytes, the putative osteoclast precursor in peripheral blood and CD14 positive monocytes have been selected for osteoclastogenesis. (Clin. Sci (Lond) 2000, August, 99 (2): 133-40).\nThe osteoclasts were isolated as CD 14 positive monocytes and were differentiated into osteoclasts for 10-12 days. Hereafter the osteoclasts were lifted by trypsin, counted and seeded on bovine bone slices at a density of 40,000 cells per bone slice. The osteoclasts were seeded on the cone slices for one day before the plant extracts were added. The osteoclasts were hereby allowed to attach and initiate the resorption activity. […]\nThe bone resorption experiment was ended after 5 days of incubation and the cell viability was measured by the use of the Alamar blue assay as represented in FIG. 3. […]"}
{"molecule": "CO/C1=C\\C(C)=C\\[C@@H](C)[C@@H](O)[C@@H](C)C/C(C)=C/C=C/[C@H](OC)[C@@H]([C@@H](C)[C@@H](O)[C@H](C)[C@@]2(O)C[C@@H](O)[C@H](C)[C@@H](C(C)C)O2)OC1=O", "note": "[Bafilomycin]", "values": [{"measurement": "remaining bone resorption (CTX release) as % of DMSO control", "result": "approximately 8%"}]}
